Experimental data as given in ChEMBL document CHEMBL1151757, “Synthesis, radiosynthesis, and biological evaluation of fluorine-18-labeled 2beta-carbo(fluoroalkoxy)-3beta-(3'-((Z)-2-haloethenyl)phenyl)nortropanes: candidate radioligands for in vivo imaging of the serotonin transporter with positron emission tomography” (J Med Chem, 2008).

Experiments:
Caudate [1] = experiment: Drug uptake in anesthetized cynomolgus monkey brain caudate after 18.5 mins postinjection; format: ADME, organism-based, Macaca fascicularis, Caudate nucleus; conditions: in vivo
Thalamus [2] = experiment: Drug uptake in anesthetized cynomolgus monkey brain thalamus after 3.5 mins postinjection; format: ADME, organism-based, Macaca fascicularis; set-up: unit not given here; conditions: in vivo
Caudate [3] = experiment: Drug uptake in anesthetized cynomolgus monkey brain caudate after 2.5 mins postinjection; format: ADME, organism-based, Macaca fascicularis, Caudate nucleus; conditions: in vivo
Medulla [4] = experiment: Drug uptake in anesthetized cynomolgus monkey brain medulla after 115 mins postinjection; format: ADME, organism-based, Macaca fascicularis; conditions: in vivo
[5] = Drug uptake in anesthetized cynomolgus monkey brain cerebellum after 115 mins postinjection; format: ADME, organism-based, Macaca fascicularis; conditions: in vivo
Thalamus [6] = experiment: Drug uptake in anesthetized cynomolgus monkey brain thalamus after 165 mins postinjection; format: ADME, organism-based, Macaca fascicularis; set-up: unit not given here; conditions: in vivo, 2.75 h
Midbrain [7] = experiment: Drug uptake in anesthetized cynomolgus monkey brain midbrain after 12.5 mins postinjection; format: ADME, organism-based, Macaca fascicularis; set-up: unit not given here; conditions: in vivo
Midbrain [8] = experiment: Drug uptake in anesthetized cynomolgus monkey brain midbrain after 165 mins postinjection; format: ADME, organism-based, Macaca fascicularis; conditions: in vivo, 2.75 h
[9] = Drug uptake in anesthetized cynomolgus monkey brain cerebellum after 95 mins postinjection; format: ADME, organism-based, Macaca fascicularis; conditions: in vivo
[10] = Drug uptake in anesthetized cynomolgus monkey brain occipital lobe after 1.5 mins postinjection; format: ADME, organism-based, Macaca fascicularis; conditions: in vivo, 0.025 h
[11] = Ratio of drug uptake in medulla to cerebellum in anesthetized cynomolgus monkey after 85 mins postinjection; format: ADME, organism-based, Macaca fascicularis; conditions: in vivo
[12] = Ratio of drug uptake in frontal lobe to cerebellum in anesthetized cynomolgus monkey after 125 mins postinjection; format: ADME, organism-based, Macaca fascicularis; conditions: in vivo
Pons [13] = experiment: Drug uptake in anesthetized cynomolgus monkey brain pons after 145 mins postinjection; format: ADME, organism-based, Macaca fascicularis; conditions: in vivo
[14] = Drug uptake in anesthetized cynomolgus monkey brain frontal lobe after 95 mins postinjection; format: ADME, organism-based, Macaca fascicularis; conditions: in vivo
Medulla [15] = experiment: Drug uptake in anesthetized cynomolgus monkey brain medulla after 1.5 mins postinjection; format: ADME, organism-based, Macaca fascicularis; conditions: in vivo, 0.025 h
[16] = Ratio of drug uptake in thalamus to cerebellum in anesthetized cynomolgus monkey after 27.5 mins postinjection; format: ADME, organism-based, Macaca fascicularis; conditions: in vivo
Medulla [17] = experiment: Drug uptake in anesthetized cynomolgus monkey brain medulla after 2.5 mins postinjection; format: ADME, organism-based, Macaca fascicularis; conditions: in vivo
Pons [18] = experiment: Drug uptake in anesthetized cynomolgus monkey brain pons after 105 mins postinjection; format: ADME, organism-based, Macaca fascicularis; conditions: in vivo, 1.75 h
[19] = Ratio of drug uptake in midbrain to cerebellum in anesthetized cynomolgus monkey after 125 mins postinjection; format: ADME, organism-based, Macaca fascicularis; conditions: in vivo
Caudate [20] = experiment: Drug uptake in anesthetized cynomolgus monkey brain caudate after 225 mins postinjection; format: ADME, organism-based, Macaca fascicularis, Caudate nucleus; conditions: in vivo, 3.75 h
[21] = Drug uptake in anesthetized cynomolgus monkey brain cerebellum after 0.5 mins postinjection; format: ADME, organism-based, Macaca fascicularis; conditions: in vivo
Putamen [22] = experiment: Drug uptake in anesthetized cynomolgus monkey brain putamen after 4.5 mins postinjection; format: ADME, organism-based, Macaca fascicularis; set-up: unit not given here; conditions: in vivo, 0.075 h
Putamen [23] = experiment: Drug uptake in anesthetized cynomolgus monkey brain putamen after 18.5 mins postinjection; format: ADME, organism-based, Macaca fascicularis; set-up: unit not given here; conditions: in vivo
Caudate [24] = experiment: Drug uptake in anesthetized cynomolgus monkey brain caudate after 145 mins postinjection; format: ADME, organism-based, Macaca fascicularis, Caudate nucleus; conditions: in vivo
Caudate [25] = experiment: Drug uptake in anesthetized cynomolgus monkey brain caudate after 115 mins postinjection; format: ADME, organism-based, Macaca fascicularis, Caudate nucleus; conditions: in vivo
Medulla [26] = experiment: Drug uptake in anesthetized cynomolgus monkey brain medulla after 95 mins postinjection; format: ADME, organism-based, Macaca fascicularis; conditions: in vivo
[27] = Ratio of drug uptake in pons to cerebellum in anesthetized cynomolgus monkey after 125 mins postinjection; format: ADME, organism-based, Macaca fascicularis; conditions: in vivo
Caudate [28] = experiment: Drug uptake in anesthetized cynomolgus monkey brain caudate after 55 mins postinjection; format: ADME, organism-based, Macaca fascicularis, Caudate nucleus; conditions: in vivo
[29] = Drug uptake in anesthetized cynomolgus monkey brain frontal lobe after 27.5 mins postinjection; format: ADME, organism-based, Macaca fascicularis; conditions: in vivo
Medulla [30] = experiment: Drug uptake in anesthetized cynomolgus monkey brain medulla after 225 mins postinjection; format: ADME, organism-based, Macaca fascicularis; conditions: in vivo, 3.75 h
[31] = Ratio of drug uptake in thalamus to cerebellum in anesthetized cynomolgus monkey after 135 mins postinjection; format: ADME, organism-based, Macaca fascicularis; conditions: in vivo, 2.25 h
Caudate [32] = experiment: Drug uptake in anesthetized cynomolgus monkey brain caudate after 175 mins postinjection; format: ADME, organism-based, Macaca fascicularis, Caudate nucleus; conditions: in vivo
[33] = Ratio of drug uptake in putamen to cerebellum in anesthetized cynomolgus monkey after 45 mins postinjection; format: ADME, organism-based, Macaca fascicularis; conditions: in vivo, 0.75 h
[34] = Ratio of drug uptake in midbrain to cerebellum in anesthetized cynomolgus monkey after 9.5 mins postinjection; format: ADME, organism-based, Macaca fascicularis; conditions: in vivo
[35] = Ratio of drug uptake in midbrain to cerebellum in anesthetized cynomolgus monkey after 235 mins postinjection; format: ADME, organism-based, Macaca fascicularis; conditions: in vivo
Thalamus [36] = experiment: Drug uptake in anesthetized cynomolgus monkey brain thalamus after 95 mins postinjection; format: ADME, organism-based, Macaca fascicularis; set-up: unit not given here; conditions: in vivo
[37] = Ratio of drug uptake in midbrain to cerebellum in anesthetized cynomolgus monkey after 135 mins postinjection; format: ADME, organism-based, Macaca fascicularis; conditions: in vivo, 2.25 h
Pons [38] = experiment: Drug uptake in anesthetized cynomolgus monkey brain pons after 0.5 mins postinjection; format: ADME, organism-based, Macaca fascicularis; conditions: in vivo
Thalamus [39] = experiment: Drug uptake in anesthetized cynomolgus monkey brain thalamus after 22.5 mins postinjection; format: ADME, organism-based, Macaca fascicularis; set-up: unit not given here; conditions: in vivo, 0.375 h
Pons [40] = experiment: Drug uptake in anesthetized cynomolgus monkey brain pons after 45 mins postinjection; format: ADME, organism-based, Macaca fascicularis; conditions: in vivo, 0.75 h
Thalamus [41] = experiment: Drug uptake in anesthetized cynomolgus monkey brain thalamus after 1.5 mins postinjection; format: ADME, organism-based, Macaca fascicularis; conditions: in vivo, 0.025 h
[42] = Ratio of drug uptake in pons to cerebellum in anesthetized cynomolgus monkey after 0.5 mins postinjection; format: ADME, organism-based, Macaca fascicularis; conditions: in vivo
[43] = Ratio of drug uptake in putamen to cerebellum in anesthetized cynomolgus monkey after 75 mins postinjection; format: ADME, organism-based, Macaca fascicularis; conditions: in vivo, 1.25 h
[44] = Drug uptake in anesthetized cynomolgus monkey brain frontal lobe after 45 mins postinjection; format: ADME, organism-based, Macaca fascicularis; conditions: in vivo, 0.75 h
[45] = Drug uptake in anesthetized cynomolgus monkey brain frontal lobe after 75 mins postinjection; format: ADME, organism-based, Macaca fascicularis; conditions: in vivo, 1.25 h
Caudate [46] = experiment: Drug uptake in anesthetized cynomolgus monkey brain caudate after 15.5 mins postinjection; format: ADME, organism-based, Macaca fascicularis, Caudate nucleus; conditions: in vivo
[47] = Ratio of drug uptake in midbrain to cerebellum in anesthetized cynomolgus monkey after 18.5 mins postinjection; format: ADME, organism-based, Macaca fascicularis; conditions: in vivo
[48] = Ratio of drug uptake in caudate to cerebellum in anesthetized cynomolgus monkey after 0.5 mins postinjection; format: ADME, organism-based, Macaca fascicularis; conditions: in vivo
[49] = Ratio of drug uptake in pons to cerebellum in anesthetized cynomolgus monkey after 105 mins postinjection; format: ADME, organism-based, Macaca fascicularis; conditions: in vivo, 1.75 h
[50] = Drug uptake in anesthetized cynomolgus monkey brain cerebellum after 1.5 mins postinjection; format: ADME, organism-based, Macaca fascicularis; conditions: in vivo, 0.025 h
Putamen [51] = experiment: Drug uptake in anesthetized cynomolgus monkey brain putamen after 145 mins postinjection; format: ADME, organism-based, Macaca fascicularis; conditions: in vivo
Midbrain [52] = experiment: Drug uptake in anesthetized cynomolgus monkey brain midbrain after 6.5 mins postinjection; format: ADME, organism-based, Macaca fascicularis; set-up: unit not given here; conditions: in vivo
[53] = Drug uptake in anesthetized cynomolgus monkey brain occipital lobe after 45 mins postinjection; format: ADME, organism-based, Macaca fascicularis; conditions: in vivo, 0.75 h
Midbrain [54] = experiment: Drug uptake in anesthetized cynomolgus monkey brain midbrain after 215 mins postinjection; format: ADME, organism-based, Macaca fascicularis; conditions: in vivo
Midbrain [55] = experiment: Drug uptake in anesthetized cynomolgus monkey brain midbrain after 65 mins postinjection; format: ADME, organism-based, Macaca fascicularis; set-up: unit not given here; conditions: in vivo
Medulla [56] = experiment: Drug uptake in anesthetized cynomolgus monkey brain medulla after 135 mins postinjection; format: ADME, organism-based, Macaca fascicularis; conditions: in vivo, 2.25 h
[57] = Drug uptake in anesthetized cynomolgus monkey brain cerebellum after 175 mins postinjection; format: ADME, organism-based, Macaca fascicularis; conditions: in vivo
[58] = Ratio of drug uptake in putamen to cerebellum in anesthetized cynomolgus monkey after 155 mins postinjection; format: ADME, organism-based, Macaca fascicularis; conditions: in vivo
Pons [59] = experiment: Drug uptake in anesthetized cynomolgus monkey brain pons after 1.5 mins postinjection; format: ADME, organism-based, Macaca fascicularis; conditions: in vivo, 0.025 h
Thalamus [60] = experiment: Drug uptake in anesthetized cynomolgus monkey brain thalamus after 225 mins postinjection; format: ADME, organism-based, Macaca fascicularis; set-up: unit not given here; conditions: in vivo, 3.75 h
Pons [61] = experiment: Drug uptake in anesthetized cynomolgus monkey brain pons after 75 mins postinjection; format: ADME, organism-based, Macaca fascicularis; conditions: in vivo, 1.25 h
[62] = Drug uptake in anesthetized cynomolgus monkey brain frontal lobe after 12.5 mins postinjection; format: ADME, organism-based, Macaca fascicularis; conditions: in vivo

## O=C(OCCC[18F])C1C2CCC(CC1c1cccc(/C=C\Br)c1)N2 (configuration not stated)
Caudate [1]
  Drug uptake: 4.53
Thalamus [2]
  Drug uptake: 1.89
Caudate [3]
  Drug uptake: 0.83
Medulla [4]
  Drug uptake: 5.07
[5]
  Drug uptake: 3.29
Thalamus [6]
  Drug uptake: 4.31
Midbrain [7]
  Drug uptake: 5.24
Midbrain [8]
  Drug uptake: 5.06
[9]
  Drug uptake: 3.81
[10]
  Drug uptake: 0.3
[11]
  Ratio: 1.4
[12]
  Ratio: 0.9
Pons [13]
  Drug uptake: 4.35
[14]
  Drug uptake: 3.31
Medulla [15]
  Drug uptake: 0.42
[16]
  Ratio: 0.9
Medulla [17]
  Drug uptake: 1.62
Pons [18]
  Drug uptake: 4.38
[19]
  Ratio: 1.8
Caudate [20]
  Drug uptake: 3.46
[21]
  Drug uptake: 0.01
Putamen [22]
  Drug uptake: 3.11
Putamen [23]
  Drug uptake: 5.83
Caudate [24]
  Drug uptake: 4.38
Caudate [25]
  Drug uptake: 4.71
Medulla [26]
  Drug uptake: 5.59
[27]
  Ratio: 1.4
Caudate [28]
  Drug uptake: 5.31
[29]
  Drug uptake: 3.8
Medulla [30]
  Drug uptake: 3.64
[31]
  Ratio: 1.6
Caudate [32]
  Drug uptake: 4.04
[33]
  Ratio: 1.2
[34]
  Ratio: 0.9
[35]
  Ratio: 2.3
Thalamus [36]
  Drug uptake: 5.16
[37]
  Ratio: 1.9
Pons [38]
  Drug uptake: 0.01
Thalamus [39]
  Drug uptake: 5.02
Pons [40]
  Drug uptake: 4.85
Thalamus [41]
  Drug uptake: 0.34
[42]
  Ratio: 1.6
[43]
  Ratio: 1.4
[44]
  Drug uptake: 3.72
[45]
  Drug uptake: 3.49
Caudate [46]
  Drug uptake: 4.3
[47]
  Ratio: 0.9
[48]
  Ratio: 0.9
[49]
  Ratio: 1.3
[50]
  Drug uptake: 0.48
Putamen [51]
  Drug uptake: 4.58
Midbrain [52]
  Drug uptake: 4.35
[53]
  Drug uptake: 4.61
Midbrain [54]
  Drug uptake: 4.58
Midbrain [55]
  Drug uptake: 6.06
Medulla [56]
  Drug uptake: 4.99
[57]
  Drug uptake: 2.45
[58]
  Ratio: 1.7
Pons [59]
  Drug uptake: 0.38
Thalamus [60]
  Drug uptake: 3.52
Pons [61]
  Drug uptake: 4.67
[62]
  Drug uptake: 3.5
